Results: ChEMBL document CHEMBL2040848, “Synthesis and bioactivity evaluation of rhodanine derivatives as potential anti-bacterial agents” (2012)
In brackets after ≈: the same amount, converted by molar mass.

Tests used:
Assay type in all cases: functional
[1] = system: Staphylococcus aureus; test: Antibacterial activity against Staphylococcus aureus KCTC 4220 after 24 hrs by two-fold serial dilution method; conditions: KCTC 4220, 24 h
[2] = system: Staphylococcus aureus; test: Antibacterial activity against Staphylococcus aureus KCTC 209 after 24 hrs by two-fold serial dilution method; conditions: KCTC 209, 24 h
[3] = system: Staphylococcus aureus; test: Antibacterial activity against Staphylococcus aureus KCTC 503 after 24 hrs by two-fold serial dilution method; conditions: KCTC 503, 24 h
[4] = system: Escherichia coli; test: Antibacterial activity against Escherichia coli 1356 after 24 hrs by two-fold serial dilution method; conditions: Escherichia coli, 1356, 24 h
[5] = system: Staphylococcus aureus; test: Antibacterial activity against methicillin-resistant Staphylococcus aureus CCARM 3167 after 24 hrs by two-fold serial dilution method; conditions: CCARM 3167, 24 h
[6] = system: Staphylococcus aureus; test: Antibacterial activity against methicillin-resistant Staphylococcus aureus CCARM 3506 after 24 hrs by two-fold serial dilution method; conditions: CCARM 3506, 24 h
[7] = system: Staphylococcus aureus; test: Antibacterial activity against quinolone-resistant Staphylococcus aureus CCARM 3505 after 24 hrs by two-fold serial dilution method; conditions: CCARM 3505, 24 h
[8] = system: Staphylococcus aureus; test: Antibacterial activity against quinolone-resistant Staphylococcus aureus CCARM 3519 after 24 hrs by two-fold serial dilution method; conditions: CCARM 3519, 24 h

## O=C(COc1ccc(/C=C2\SC(=S)N([C@@H](Cc3ccccc3)C(=O)O)C2=O)cc1)c1ccccc1Cl
[1]
  MIC: 8 µg/mL (≈ 14.9 µM)
[2]
  MIC: 8 µg/mL (≈ 14.9 µM)
[3]
  MIC: 8 µg/mL (≈ 14.9 µM)
[4]
  MIC: > 64 µg/mL
[5]
  MIC: 4 µg/mL (≈ 7.43 µM)
[6]
  MIC: 4 µg/mL (≈ 7.43 µM)
[7]
  MIC: 4 µg/mL (≈ 7.43 µM)
[8]
  MIC: 4 µg/mL (≈ 7.43 µM)

## O=C(COc1ccc(/C=C2\SC(=S)N([C@@H](Cc3ccccc3)C(=O)O)C2=O)cc1)c1cccc(Cl)c1
[1]
  MIC: 8 µg/mL (≈ 14.9 µM)
[2]
  MIC: 4 µg/mL (≈ 7.43 µM)
[3]
  MIC: 4 µg/mL (≈ 7.43 µM)
[4]
  MIC: > 64 µg/mL
[5]
  MIC: 4 µg/mL (≈ 7.43 µM)
[6]
  MIC: 4 µg/mL (≈ 7.43 µM)
[7]
  MIC: 4 µg/mL (≈ 7.43 µM)
[8]
  MIC: 4 µg/mL (≈ 7.43 µM)

## O=C(COc1ccc(/C=C2\SC(=S)N([C@@H](Cc3ccccc3)C(=O)O)C2=O)cc1)c1ccc(Cl)cc1
[1]
  MIC: 4 µg/mL (≈ 7.43 µM)
[2]
  MIC: 4 µg/mL (≈ 7.43 µM)
[3]
  MIC: 8 µg/mL (≈ 14.9 µM)
[4]
  MIC: > 64 µg/mL
[5]
  MIC: 4 µg/mL (≈ 7.43 µM)
[6]
  MIC: 4 µg/mL (≈ 7.43 µM)
[7]
  MIC: 4 µg/mL (≈ 7.43 µM)
[8]
  MIC: 4 µg/mL (≈ 7.43 µM)

## O=C(COc1ccc(/C=C2\SC(=S)N([C@@H](Cc3ccccc3)C(=O)O)C2=O)cc1)c1ccc(Cl)cc1Cl
[1]
  MIC: 8 µg/mL (≈ 14 µM)
[2]
  MIC: 8 µg/mL (≈ 14 µM)
[3]
  MIC: 8 µg/mL (≈ 14 µM)
[4]
  MIC: > 64 µg/mL
[5]
  MIC: 8 µg/mL (≈ 14 µM)
[6]
  MIC: 8 µg/mL (≈ 14 µM)
[7]
  MIC: 8 µg/mL (≈ 14 µM)
[8]
  MIC: 8 µg/mL (≈ 14 µM)

## O=C(COc1ccc(/C=C2\SC(=S)N([C@@H](Cc3ccccc3)C(=O)O)C2=O)cc1)c1ccccc1Br
[1]
  MIC: 8 µg/mL (≈ 13.7 µM)
[2]
  MIC: 4 µg/mL (≈ 6.87 µM)
[3]
  MIC: 8 µg/mL (≈ 13.7 µM)
[4]
  MIC: > 64 µg/mL
[5]
  MIC: 4 µg/mL (≈ 6.87 µM)
[6]
  MIC: 8 µg/mL (≈ 13.7 µM)
[7]
  MIC: 4 µg/mL (≈ 6.87 µM)
[8]
  MIC: 8 µg/mL (≈ 13.7 µM)

## O=C(COc1ccc(/C=C2\SC(=S)N([C@@H](Cc3ccccc3)C(=O)O)C2=O)cc1)c1cccc(Br)c1
[1]
  MIC: 4 µg/mL (≈ 6.87 µM)
[2]
  MIC: 4 µg/mL (≈ 6.87 µM)
[3]
  MIC: 4 µg/mL (≈ 6.87 µM)
[4]
  MIC: > 64 µg/mL
[5]
  MIC: 4 µg/mL (≈ 6.87 µM)
[6]
  MIC: 4 µg/mL (≈ 6.87 µM)
[7]
  MIC: 4 µg/mL (≈ 6.87 µM)
[8]
  MIC: 4 µg/mL (≈ 6.87 µM)

## O=C(COc1ccc(/C=C2\SC(=S)N([C@@H](Cc3ccccc3)C(=O)O)C2=O)cc1)c1ccc(Br)cc1
[1]
  MIC: 8 µg/mL (≈ 13.7 µM)
[2]
  MIC: 8 µg/mL (≈ 13.7 µM)
[3]
  MIC: 8 µg/mL (≈ 13.7 µM)
[4]
  MIC: > 64 µg/mL
[5]
  MIC: 4 µg/mL (≈ 6.87 µM)
[6]
  MIC: 8 µg/mL (≈ 13.7 µM)
[7]
  MIC: 4 µg/mL (≈ 6.87 µM)
[8]
  MIC: 8 µg/mL (≈ 13.7 µM)

## O=C(COc1ccc(/C=C2\SC(=S)N([C@@H](Cc3ccccc3)C(=O)O)C2=O)cc1)c1ccccc1F
[1]
  MIC: 8 µg/mL (≈ 15.3 µM)
[2]
  MIC: 4 µg/mL (≈ 7.67 µM)
[3]
  MIC: 8 µg/mL (≈ 15.3 µM)
[4]
  MIC: > 64 µg/mL
[5]
  MIC: 4 µg/mL (≈ 7.67 µM)
[6]
  MIC: 4 µg/mL (≈ 7.67 µM)
[7]
  MIC: 4 µg/mL (≈ 7.67 µM)
[8]
  MIC: 4 µg/mL (≈ 7.67 µM)

## O=C(COc1ccc(/C=C2\SC(=S)N([C@@H](Cc3ccccc3)C(=O)O)C2=O)cc1)c1ccccc1
[1]
  MIC: 8 µg/mL (≈ 15.9 µM)
[2]
  MIC: 4 µg/mL (≈ 7.94 µM)
[3]
  MIC: 8 µg/mL (≈ 15.9 µM)
[4]
  MIC: > 64 µg/mL
[5]
  MIC: 8 µg/mL (≈ 15.9 µM)
[6]
  MIC: 4 µg/mL (≈ 7.94 µM)
[7]
  MIC: 8 µg/mL (≈ 15.9 µM)
[8]
  MIC: 4 µg/mL (≈ 7.94 µM)

## Cc1ccc(C(=O)COc2ccc(/C=C3\SC(=S)N([C@@H](Cc4ccccc4)C(=O)O)C3=O)cc2)cc1
[1]
  MIC: 8 µg/mL (≈ 15.5 µM)
[2]
  MIC: 8 µg/mL (≈ 15.5 µM)
[3]
  MIC: 8 µg/mL (≈ 15.5 µM)
[4]
  MIC: > 64 µg/mL
[5]
  MIC: 4 µg/mL (≈ 7.73 µM)
[6]
  MIC: 8 µg/mL (≈ 15.5 µM)
[7]
  MIC: 4 µg/mL (≈ 7.73 µM)
[8]
  MIC: 8 µg/mL (≈ 15.5 µM)

## COc1cccc(C(=O)COc2ccc(/C=C3\SC(=S)N([C@@H](Cc4ccccc4)C(=O)O)C3=O)cc2)c1
[1]
  MIC: 8 µg/mL (≈ 15 µM)
[2]
  MIC: 8 µg/mL (≈ 15 µM)
[3]
  MIC: 8 µg/mL (≈ 15 µM)
[4]
  MIC: > 64 µg/mL
[5]
  MIC: 8 µg/mL (≈ 15 µM)
[6]
  MIC: 8 µg/mL (≈ 15 µM)
[7]
  MIC: 8 µg/mL (≈ 15 µM)
[8]
  MIC: 8 µg/mL (≈ 15 µM)

## COc1ccccc1C(=O)COc1ccc(/C=C2\SC(=S)N([C@@H](Cc3ccccc3)C(=O)O)C2=O)cc1
[1]
  MIC: 4 µg/mL (≈ 7.5 µM)
[2]
  MIC: 4 µg/mL (≈ 7.5 µM)
[3]
  MIC: 4 µg/mL (≈ 7.5 µM)
[4]
  MIC: > 64 µg/mL
[5]
  MIC: 4 µg/mL (≈ 7.5 µM)
[6]
  MIC: 4 µg/mL (≈ 7.5 µM)
[7]
  MIC: 4 µg/mL (≈ 7.5 µM)
[8]
  MIC: 4 µg/mL (≈ 7.5 µM)

## O=C(COc1ccc(/C=C2\SC(=S)N([C@@H](Cc3ccc(O)cc3)C(=O)O)C2=O)cc1)c1ccccc1Cl
[1]
  MIC: 16 µg/mL (≈ 28.9 µM)
[2]
  MIC: 16 µg/mL (≈ 28.9 µM)
[3]
  MIC: 8 µg/mL (≈ 14.4 µM)
[4]
  MIC: > 64 µg/mL
[5]
  MIC: 8 µg/mL (≈ 14.4 µM)
[6]
  MIC: 16 µg/mL (≈ 28.9 µM)
[7]
  MIC: 8 µg/mL (≈ 14.4 µM)
[8]
  MIC: 16 µg/mL (≈ 28.9 µM)

## O=C(COc1ccc(/C=C2\SC(=S)N([C@@H](Cc3ccc(O)cc3)C(=O)O)C2=O)cc1)c1cccc(Cl)c1
[1]
  MIC: 8 µg/mL (≈ 14.4 µM)
[2]
  MIC: 8 µg/mL (≈ 14.4 µM)
[3]
  MIC: 8 µg/mL (≈ 14.4 µM)
[4]
  MIC: > 64 µg/mL
[5]
  MIC: 8 µg/mL (≈ 14.4 µM)
[6]
  MIC: 8 µg/mL (≈ 14.4 µM)
[7]
  MIC: 8 µg/mL (≈ 14.4 µM)
[8]
  MIC: 8 µg/mL (≈ 14.4 µM)

## O=C(COc1ccc(/C=C2\SC(=S)N([C@@H](Cc3ccc(O)cc3)C(=O)O)C2=O)cc1)c1ccc(Cl)cc1
[1]
  MIC: 16 µg/mL (≈ 28.9 µM)
[2]
  MIC: 8 µg/mL (≈ 14.4 µM)
[3]
  MIC: 8 µg/mL (≈ 14.4 µM)
[4]
  MIC: > 64 µg/mL
[5]
  MIC: 8 µg/mL (≈ 14.4 µM)
[6]
  MIC: 16 µg/mL (≈ 28.9 µM)
[7]
  MIC: 8 µg/mL (≈ 14.4 µM)
[8]
  MIC: 16 µg/mL (≈ 28.9 µM)
